From patent publication US20110098257A1, “DERIVATIVES OF 4- OR 5-AMINOSALICYLIC ACID” (ANTIBE THERAPEUTICS INC., priority 2005, published 2011) come the findings set out here.

Assay [1] has as its system iNOS mRNA. Put plainly: Colonic mRNA expression by RT-PCR in TNBS-induced colitis. The class given is in vivo, mice. Particulars: dose equimolar to mesalamine 50 mg/kg; FIG. 14. Here is the method: (§1) The same model was used as described above. In this example, the effects of mesalamine (50 mg/kg) were compared to those of equimolar doses of Compound XXXV. In addition to measuring the severity of colitis by measuring disease activity score and MPO activity, tissues were processed for measurement of a number of genes for inflammatory cytokines and other mediators.
(§2) In particular, mRNA expression in mice of tumour necrosis factor-alpha (TNF-α), interferon gamma (IFN-[…]γ), colonic interleukin (IL)-1, IL-2, IL-10, IL-12 p40, RANTES, cyclooxygenase (COX)-1, COX-2, constitutive endothelial nitric oxide synthase (eNOS), and inducible NOS (iNOS) was measured as described in Wallace et al. (1999) Gastroenterology 117: 557-566, incorporated herein by reference.
(§3) Briefly, reverse transcription-polymerase chain reaction (RT-PCR) was used to detect and quantify mRNA of the particular cytokine/chemokine/enzyme. Glyceraldehyde-3-phosphate dehydrogenase (GAPDH) was used as the “housekeeping gene” for mRNA expression (i.e., as an internal control). For each sample, the ratio of the amplification of the target gene to the amplification of GAPDH (expression of each is measured by performing densitometry on gels) was obtained. Comparisons were then made between the relative amplification (expression) of the target gene in tissues for the treatment groups in comparison to the expression in tissues from healthy controls. Thus, the data shown in FIGS. 7-14 represent the relative expression of the target gene (normalized to GAPDH expression) as a ratio to the expression in healthy controls.

For assay [2], the system named is COX-1 mRNA. Described as above. Type of assay: in vivo, mice. To be noted: dose equimolar to mesalamine 50 mg/kg; FIG. 13. Here is the method:
as §1, §2, §3

Assay [3] concerns mRNA for several pro-inflammatory cytokines and chemokines. Described as above. The class given is in vivo, mice. To be noted: dose equimolar to mesalamine 50 mg/kg; normalized to GAPDH, ratio to healthy controls. The protocol: as §1, §2, §3
Assay [4] has as its system COX-2 mRNA. Described as above. The class given is in vivo, mice. To be noted: dose equimolar to mesalamine 50 mg/kg; FIG. 13. The protocol: as §1, §2, §3
The test system of assay [5] is mice having TNBS-induced colitis. Put plainly: TNBS-induced colitis in mice (disease activity score, colonic MPO activity). Type of assay: in vivo, Balb/c mice. Here is the method:
A standard experimental animal model of colitis induced by intracolonic administration of 2,4,6-trinitrobenzene sulfonic acid (TNBS) to mice is used in the following example. A detailed description of this model has been published (Santucci et al. (2003) Gastroenterology 124:1381-94) and is incorporated herein by reference. Briefly, 6-8 week old Balb/c mice were given TNBS intracolonically at a dose of 1.5 mg in 0.1 mL of 30% ethanol. The mice were randomized to the various treatment groups (n=6 per group). Beginning one hour later and continuing every 12 h for 5 days, the mice were treated orally with vehicle (1% carboxymethylcellulose (CMC)), 5-ASA (mesalamine) (25, 50 or 75 mg/kg) or with equimolar doses of 2-hydroxy-5-amino-benzoic acid 4-(thioxo-5H-[1,2]dithiol-3-yl)-phenyl ester hydrochloride (Compound XXXV) (130 mg/kg), or with […] (100 mg/kg), 50% (66 mg/kg) and 25% (33 mg/kg) of that dose. The mice were evaluated (blindly) on the final day of the study for the presence of diarrhea and fecal occult blood, and their body weights were measured. […] After sacrifice, a sample of the colon was excised for measurement of myeloperoxidase (MPO) activity, as a marker of granulocyte infiltration. All results were compared to those obtained with healthy mice as well.
FIGS. 3 and 4 show the Disease Activity Index and MPO activity, respectively, using the same experimental animal model of colitis as described above, in which Compound XXXV (130 mg/kg) was compared to equimolar doses of its two constituents, mesalamine (50 mg/kg) and 5-p-hydroxyphenyl-[…] (ADT-OH) (80 mg/kg), and a mixture of mesalamine (50 mg/kg) and ADT-OH (80 mg/kg). *p<0.05 versus the vehicle-treated group. Each group consisted of at least 5 rats.
FIGS. 6 and 7 show the Disease Activity Index and MPO, respectively, using the same experimental animal model of colitis as described above, in which Compound XXVII (100 mg/kg) was compared to equimolar doses of its two constituents, mesalamine (50 mg/kg) and 4-hydroxythiobenzamide (4-HTB) (50 mg/kg), mesalamine alone (50 mg/kg) and 4-HTB alone (50 mg/kg). *p<0.05 versus the vehicle-treated group. Each group consisted of at least 5 rats.
as §1

For `Nc1ccc(O)c(C(=O)Oc2ccc(-c3cc(=S)ss3)cc2)c1` [Compound XXXV, 5-Amino-2-hydroxy-benzoic acid 4-(5-thioxo-5H-[1,2]dithiol-3-yl)-phenyl ester], the “iNOS mRNA expression” value in assay [1] is on record as “suppressed”. For the same molecule, the “COX-1 mRNA expression” value in assay [2] is listed as “suppressed”. Also, the “expression of mRNA for pro-inflammatory cytokines and chemokines” value in assay [3] is “suppressed expression of mRNA for several pro-inflammatory cytokines and chemokines”. Further, in assay [4], the “COX-2 mRNA expression” value is reported as “suppressed”. Further, the “Disease Activity Index” value in assay [5] (Compound XXXV 130 mg/kg vs mesalamine 50 mg/kg, ADT-OH 80 mg/kg and their mixture, FIG. 3) is “almost twice as effective as either mesalamine alone, ADT-OH alone or a mixture of mesalamine and ADT-OH”. In addition, in assay [5] (Compound XXXV 130 mg/kg, FIG. 4), the “MPO activity (granulocyte infiltration)” value is “significantly reduced inflammation”. The “every endpoint of FIGS. 7-14 (MPO activity, disease activity score, mRNA expression)” value in assay [5] (dose equimolar to mesalamine 50 mg/kg, compared with mesalamine) is reported as “superior to mesalamine in every endpoint”. The “Disease Activity Score” value in assay [5] (dose-ranging, oral every 12 h for 5 days, equimolar doses of 50 mg/kg and 75 mg/kg, compared with mesalamine, FIG. 1) is given as “superior to mesalamine in reducing the activity score”. Moreover, the “myeloperoxidase (MPO) activity” value in assay [5] (dose-ranging, oral every 12 h for 5 days, highest doses tested, FIG. 2) is given as “significantly reduced (almost in half)”.
